# Assay results published in ChEMBL document CHEMBL3272190, “(2-exo-3-endo)-2-Aryltropane-3-carboxylic esters, a new class of narcotic antagonists” (J Med Chem, 1978).
# Activity calls are given as the source filed them. No cut-off for these calls is given here.
# How the values were obtained:
# Rattus norvegicus [1] = experiment: Narcotic analgesic activity in sc dosed rat assessed as inhibition of phenazocine-induced effect by D'Amour-Smith tail flick test; type: functional
# Mus musculus [2] = experiment: Antiwrithing activity in sc dosed mouse assessed as prevention of acetylcholine-induced abdominal constriction response; type: functional; conditions: Abdomen
# Rattus norvegicus [3] = experiment: Narcotic analgesic activity in po dosed rat assessed as inhibition of phenazocine-induced effect by D'Amour-Smith tail flick test; type: functional
# Mus musculus [4] = experiment: Induction of depression in mouse at 75 mg/kg, sc; type: organism-based; set-up: dose 75 mg/kg, route subcutaneous; conditions: in vivo
# Mus musculus [5] = experiment: Antiwrithing activity in mouse assessed as prevention of acetylcholine-induced abdominal constriction response at 25 mg/kg, sc; type: functional, Abdomen; conditions: route subcutaneous
# Mus musculus [6] = experiment: Antiwrithing activity in mouse assessed as prevention of acetylcholine-induced abdominal constriction response at 100 mg/kg, sc; type: functional, Abdomen; conditions: route subcutaneous
# Mus musculus [7] = experiment: Antiwrithing activity in sc dosed mouse assessed as prevention of phenyl-p-benzoquinone-induced abdominal constriction response; type: functional; conditions: Abdomen
# Mus musculus [8] = experiment: Induction of sedation in mouse at 40 mg/kg, sc; type: organism-based; set-up: dose 40 mg/kg, route subcutaneous; conditions: in vivo
# Rattus norvegicus [9] = experiment: Induction of tremors in rat at 120 mg/kg, sc; type: organism-based; set-up: dose 120 mg/kg, route subcutaneous; conditions: in vivo
# Rattus norvegicus [10] = experiment: Narcotic analgesic activity in sc dosed rat assessed as inhibition of meperidine-induced effect by D'Amour-Smith tail flick test; type: functional, organism-based
# Rattus norvegicus [11] = experiment: Induction of convulsion in rat at 120 mg/kg, sc; type: organism-based; set-up: dose 120 mg/kg, route subcutaneous; conditions: in vivo
# Mus musculus [12] = experiment: Antiwrithing activity in po dosed mouse assessed as prevention of acetylcholine-induced abdominal constriction response; type: functional; conditions: Abdomen
# Rattus norvegicus [13] = experiment: Narcotic analgesic activity in po dosed rat assessed as inhibition of morphine-induced effect by D'Amour-Smith tail flick test; type: functional, organism-based
# Mus musculus [14] = experiment: Antiwrithing activity in po dosed mouse assessed as prevention of phenyl-p-benzoquinone-induced abdominal constriction response; type: functional; conditions: Abdomen
# Mus musculus [15] = experiment: Induction of hyperexcitable in mouse at 100 mg/kg, sc; type: organism-based; set-up: dose 100 mg/kg, route subcutaneous; conditions: in vivo
# Rattus norvegicus [16] = experiment: Narcotic analgesic activity in po dosed rat assessed as inhibition of meperidine-induced effect by D'Amour-Smith tail flick test; type: functional, organism-based
# Rattus norvegicus [17] = experiment: Narcotic analgesic activity in sc dosed rat assessed as inhibition of morphine-induced effect by D'Amour-Smith tail flick test; type: functional, organism-based
# Rattus norvegicus [18] = experiment: Analgesic activity in rat assessed as inhibition of intraarterial bradykinin-induced effect up to 100 mg/kg, sc; type: functional
# Rattus norvegicus [19] = experiment: Induction of hyperactiveness in rat at 200 mg/kg, po; type: organism-based; set-up: dose 200 mg/kg, route oral; conditions: in vivo
# Mus musculus [20] = experiment: Analgesic activity in mouse assessed as inhibition of intraarterial bradykinin-induced effect at 50 mg/kg, sc; type: functional, organism-based; set-up: dose 50 mg/kg
# Rattus norvegicus [21] = experiment: Induction of depression in rat at 75 mg/kg, sc; type: organism-based; set-up: dose 75 mg/kg, route subcutaneous; conditions: in vivo
# Mus musculus [22] = experiment: Induction of hyperactiveness in mouse at 30 mg/kg, sc; type: organism-based; set-up: dose 30 mg/kg, route subcutaneous; conditions: in vivo
# Mus musculus [23] = experiment: Toxicity in mouse assessed as mortality at >15 mg/kg, sc; type: organism-based; conditions: in vivo
# Mus musculus [24] = experiment: Induction of convulsion in mouse at 75 mg/kg, sc; type: organism-based; set-up: dose 75 mg/kg, route subcutaneous; conditions: in vivo
# Mus musculus [25] = experiment: Antiwrithing activity in mouse assessed as prevention of acetylcholine-induced abdominal constriction response at 15 mg/kg, sc; type: functional, Abdomen; conditions: route subcutaneous
# Mus musculus [26] = experiment: Induction of hyperactiveness in mouse at 75 mg/kg, sc; type: organism-based; set-up: dose 75 mg/kg, route subcutaneous; conditions: in vivo
# Rattus norvegicus [27] = experiment: Induction of hyperactiveness in rat at 120 mg/kg, sc; type: organism-based; set-up: dose 120 mg/kg, route subcutaneous; conditions: in vivo
# Mus musculus [28] = experiment: Induction of depression in mouse at 35 mg/kg, sc; type: organism-based; set-up: dose 35 mg/kg, route subcutaneous; conditions: in vivo
# Mus musculus [29] = experiment: Induction of tremors in mouse at 35 mg/kg, sc; type: organism-based; set-up: dose 35 mg/kg, route subcutaneous; conditions: in vivo
# Rattus norvegicus [30] = experiment: Induction of rigidity in rat at 120 mg/kg, sc; type: organism-based; set-up: dose 120 mg/kg, route subcutaneous; conditions: in vivo
# Rattus norvegicus [31] = experiment: Analgesic activity in rat assessed as inhibition of intraarterial bradykinin-induced effect at 10 mg/kg, sc; type: functional, organism-based; set-up: dose 10 mg/kg
# Rattus norvegicus [32] = experiment: Toxicity in rat assessed as mortality at >10 mg, ip; type: organism-based; conditions: in vivo
# Rattus norvegicus [33] = experiment: Narcotic analgesic activity in rat assessed as inhibition of phenazocine-induced effect at 10 mg, ip by D'Amour-Smith tail flick test; type: functional, organism-based
compound,measurement,setting,value
COC(=O)[C@H]1C[C@H]2CC[C@H]([C@H]1c1ccccc1)N2C,AD50,Rattus norvegicus [1],>80 mg/kg
COC(=O)[C@H]1C[C@H]2CC[C@@H]([C@H]1c1ccccc1)N2C,AD50,Rattus norvegicus [1],3.3 mg/kg
COC(=O)[C@H]1C[C@H]2CC[C@@H](N2)[C@H]1c1cccc(O)c1,ED50,Mus musculus [2],60 mg/kg
same,AD50,Rattus norvegicus [1],>80 mg/kg
COC(=O)[C@H]1C[C@H]2CC[C@H](N2)[C@H]1c1cccc(O)c1,ED50,Mus musculus [2],60 mg/kg
same,AD50,Rattus norvegicus [3],14 mg/kg
same,AD50,Rattus norvegicus [1],0.3 mg/kg
COC(=O)[C@H]1C[C@H]2CC[C@@H]3[C@H]1c1cc(O)ccc1CN23,Activity,Mus musculus [4],Toxic
same,Activity,Mus musculus [5],0%
same,Activity,Mus musculus [6],100%
same,AD50,Rattus norvegicus [1],1.45 mg/kg
COC(=O)[C@H]1C[C@H]2CC[C@@H]3[C@H]1c1cccc(O)c1CN23,AD50,Rattus norvegicus [1],2 mg/kg
COC(=O)[C@@H]1C[C@H]2CCC([C@H]1c1ccccc1)N2C (mixture of isomers),ED50,Mus musculus [7],17 mg/kg
same,Activity,Mus musculus [8],Toxic
same,Activity,Rattus norvegicus [9],Toxic
same,ED50,Mus musculus [2],12 mg/kg
same,AD50,Rattus norvegicus [1],>80 mg/kg
COC(=O)[C@H]1C[C@H]2CCC([C@H]1c1ccccc1)N2C (mixture of isomers),Activity,Rattus norvegicus [10],inactive
same,ED50,Mus musculus [7],43 mg/kg
same,Activity,Rattus norvegicus [11],Toxic
same,ED50,Mus musculus [12],16 mg/kg
same,Activity,Mus musculus [8],Toxic
same,Activity,Rattus norvegicus [13],inactive
same,ED50,Mus musculus [14],> 200 mg/kg
same,ED50,Mus musculus [2],12 mg/kg
same,Activity,Mus musculus [15],Toxic
same,Activity,Rattus norvegicus [16],inactive
same,Activity,Rattus norvegicus [17],inactive
same,AD50,Rattus norvegicus [3],1.1 mg/kg
same,AD50,Rattus norvegicus [1],5.5 mg/kg
same,Activity,Rattus norvegicus [18],inactive
COC(=O)[C@H]1C[C@H]2CCC(N2)[C@H]1c1cccc(O)c1 (mixture of isomers),AD50,Rattus norvegicus [1],2 mg/kg
COC(=O)C1C[C@H]2CC[C@H]([C@H]1c1cccs1)N2C (mixture of isomers),ED50,Mus musculus [7],60 mg/kg
same,Activity,Mus musculus [4],Toxic
same,ED50,Mus musculus [2],13 mg/kg
same,AD50,Rattus norvegicus [1],4.9 mg/kg
COC(=O)[C@H]1C[C@H]2CC[C@H]([C@H]1c1ccc[nH]1)N2C (racemic),ED50,Mus musculus [12],34 mg/kg
same,Activity,Rattus norvegicus [19],Toxic
same,AD50,Rattus norvegicus [1],>80 mg/kg
COC(=O)[C@@H]1C[C@H]2CC[C@H]([C@H]1c1ccccc1)N2Cc1ccccc1 (racemic),ED50,Mus musculus [12],21 mg/kg
same,ED50,Mus musculus [2],> 75 mg/kg
same,AD50,Rattus norvegicus [1],>80 mg/kg
COC(=O)[C@H]1C[C@H]2CC[C@@H](N2)[C@H]1c1ccccc1 (racemic),Activity,Mus musculus [20],Active
same,ED50,Mus musculus [7],22 mg/kg
same,ED50,Mus musculus [12],8.4 mg/kg
same,Activity,Rattus norvegicus [9],Toxic
same,ED50,Mus musculus [14],100 mg/kg
same,ED50,Mus musculus [2],3.4 mg/kg
same,AD50,Rattus norvegicus [3],4.1 mg/kg
same,Activity,Rattus norvegicus [21],Toxic
same,AD50,Rattus norvegicus [1],2.1 mg/kg
COC(=O)[C@H]1C[C@H]2CC[C@H]([C@H]1c1ccccc1)N2CC1CC1 (racemic),Activity,Mus musculus [22],Toxic
same,Activity,Mus musculus [23],Toxic
same,Activity,Mus musculus [24],Toxic
same,Activity,Mus musculus [25],67%
same,ED50,Mus musculus [2],10 mg/kg
same,AD50,Rattus norvegicus [1],10 mg/kg
CN1[C@@H]2CC[C@@H]1[C@@H](c1ccccc1)[C@@H](C(=O)O)C2 (racemic),AD50,Rattus norvegicus [1],>80 mg/kg
CC(C)OC(=O)[C@H]1C[C@H]2CC[C@H]([C@H]1c1ccccc1)N2C (racemic),Activity,Mus musculus [22],Toxic
same,Activity,Rattus norvegicus [11],Toxic
same,ED50,Mus musculus [2],16 mg/kg
same,AD50,Rattus norvegicus [1],>80 mg/kg
COC(=O)[C@H]1C[C@H]2CC[C@H]([C@H]1c1ccc(O)cc1)N2C (racemic),Activity,Mus musculus [22],Toxic
same,ED50,Mus musculus [2],7.1 mg/kg
same,AD50,Rattus norvegicus [1],>80 mg/kg
COC(=O)[C@@H]1C[C@H]2CC[C@H]([C@H]1c1cccc(O)c1)N2C (racemic),ED50,Mus musculus [7],100 mg/kg
same,ED50,Mus musculus [2],24 mg/kg
same,AD50,Rattus norvegicus [1],>80 mg/kg
same,Activity,Rattus norvegicus [18]; route subcutaneous,0%
COC(=O)[C@H]1C[C@H]2CC[C@H]([C@H]1c1cccc(O)c1)N2C (racemic),ED50,Mus musculus [7],75 mg/kg
same,Activity,Rattus norvegicus [9],Toxic
same,ED50,Mus musculus [2],16 mg/kg
same,Activity,Mus musculus [26],Toxic
same,Activity,Rattus norvegicus [27],Toxic
same,AD50,Rattus norvegicus [3],1.8 mg/kg
same,AD50,Rattus norvegicus [1],0.37 mg/kg
COC(=O)[C@H]1C[C@H]2CC[C@H]([C@H]1c1cccc(OC)c1)N2C (racemic),Activity,Mus musculus [28],Toxic
same,ED50,Mus musculus [2],19 mg/kg
same,Activity,Mus musculus [29],Toxic
same,AD50,Rattus norvegicus [1],>80 mg/kg
COC(=O)[C@@H]1C[C@H]2CC[C@H]([C@H]1Cc1ccccc1)N2C (racemic),Activity,Rattus norvegicus [11],Toxic
same,ED50,Mus musculus [2],5.8 mg/kg
same,Activity,Mus musculus [26],Toxic
same,AD50,Rattus norvegicus [1],>80 mg/kg
COC(=O)[C@@H]1C[C@H]2CC[C@H]([C@H]1c1cccs1)N2C (racemic),Activity,Rattus norvegicus [11],Toxic
same,ED50,Mus musculus [12],35 mg/kg
same,Activity,Rattus norvegicus [30],Toxic
same,Activity,Rattus norvegicus [9],Toxic
same,ED50,Mus musculus [2],12 mg/kg
same,AD50,Rattus norvegicus [1],>80 mg/kg
same,Activity,Rattus norvegicus [18],Active
COC(=O)[C@@H]1C[C@H]2CC[C@H]([C@H]1c1ccc[nH]1)N2C (racemic),ED50,Mus musculus [12],42 mg/kg
same,ED50,Mus musculus [2],13 mg/kg
same,Activity,Rattus norvegicus [31],inactive
same,AD50,Rattus norvegicus [1],56 mg/kg
COC(=O)[C@H]1CCN(C)C[C@H]1c1ccccc1 (relative stereo),Activity,Mus musculus [4],Toxic
same,Activity,Rattus norvegicus [32],Toxic
same,ED50,Mus musculus [2],16 mg/kg
same,Activity,Rattus norvegicus [33],inactive
COC(=O)[C@H]1CCN(C)C[C@@H]1c1ccccc1 (relative stereo),Activity,Mus musculus [4],Toxic
same,Activity,Rattus norvegicus [32],Toxic
same,ED50,Mus musculus [2],16 mg/kg
same,Activity,Rattus norvegicus [33],inactive
COC(=O)[C@@H]1CCN(C)C[C@@H]1c1cccs1 (relative stereo),AD50,Rattus norvegicus [1],49 mg/kg
COC(=O)[C@H]1CCN(C)C[C@@H]1c1cccs1 (relative stereo),AD50,Rattus norvegicus [1],5.6 mg/kg
CCOC(=O)C1(c2ccccc2)CCN(C)CC1 [MEPERIDINE],AD50,Rattus norvegicus [3],25 mg/kg
same,AD50,Rattus norvegicus [1],19 mg/kg
CN1CC[C@]23c4c5ccc(O)c4O[C@H]2[C@@H](O)C=C[C@H]3[C@H]1C5 [MORPHINE],AD50,Rattus norvegicus [3],13 mg/kg
same,AD50,Rattus norvegicus [1],29 mg/kg
C=CCN1CC[C@]23c4c5ccc(O)c4O[C@H]2[C@@H](O)C=C[C@H]3[C@H]1C5 [NALORPHINE],ED50,Mus musculus [7],15 mg/kg
same,AD50,Rattus norvegicus [3],6 mg/kg
same,AD50,Rattus norvegicus [1],0.1 mg/kg
C=CCN1CC[C@]23c4c5ccc(O)c4O[C@H]2C(=O)CC[C@@]3(O)[C@H]1C5 [NALOXONE],ED50,Mus musculus [7],103 mg/kg
same,ED50,Mus musculus [2],60 mg/kg
same,AD50,Rattus norvegicus [1],0.008 mg/kg
